Converted amounts (≈) assume the structure as drawn. *1 amine or outer side, *2 acyl side, *3 side chain or, on linkers, in order; H or OH if unused. Where a SMILES comes first, the peptide text is derived from it. Bridges are numbered along the chain shown (N, C = ends). [ ]: non-standard residue; d: D form. The star is where a group is joined. Phe(3R-OH) = O=C([C@@H](N[*:1])[C@H](O[*:3])c1ccccc1)[*:2]; Asn(3S-OH) = NC(=O)[C@@H](O)[C@H](N)C(=O)O; Leu(3R-OH) = CC(C)[C@@H](O)[C@H](N)C(=O)O; dAla(TMS) = C[Si](C)(C)C[C@@H](N)C(=O)O; d(tBuAla) = CC(C)(C)C[C@@H](N)C(=O)O; tBuAla = CC(C)(C)C[C@H](N)C(=O)O; 3Pal = N[C@@H](Cc1cccnc1)C(=O)O; aThr = C[C@H](O)[C@H](N)C(=O)O; dOrn = NCCC[C@@H](N)C(=O)O; Ac6c = NC1(C(=O)O)CCCCC1; Cbz = O=C(OCc1ccccc1)*
Assays:
E. faecalis ICB 27159 = type: cell-based, Enterococcus faecalis; details: ICB 27159
Protocol: (§1) Determination of the Minimum Inhibitory Concentration (MIC):
(§2) The MIC is determined in the liquid dilution test in accordance with the NCCLS guidelines. Overnight cultures of Staphylococcus aureus 133, Enterococcus faecalis 27159, E. faecium 4147 and Streptococcus pneumoniae G9a are incubated with the desired test substances in a 1:2 dilution series. The MIC determination is carried out with a cell count of 10^5 microbes per ml in Isosensitest medium (Difco, Irvine/USA), with the exception of S. pneumoniae which is tested in BHI broth (Difco, Irvine/USA) with 10% bovine serum with a cell count of 10^6 microbes per ml. The cultures are incubated at 37° C. for 18-24 hours, S. pneumoniae in the presence of 10% CO2.
(§3) The MIC is defined as the lowest concentration of each substance at which visible bacterial growth no longer occurs. The MIC values are reported in μg/ml.

[1] = tested on: Streptococcus pneumoniae G9a; type: cell-based; details: G9a
Protocol: as §1, §2, §3

[2] = tested on: Staphylococcus aureus 133; type: cell-based; details: 133
Protocol: as §1, §2, §3

E. faecium L4001 = type: cell-based, Enterococcus faecium; details: L4001

| SMILES | MIC E. faecalis ICB 27159 (E. faecalis ICB 27159) [µg/mL] | MIC S. pneumoniae [1] [µg/mL] | MIC S. aureus 133 [2] [µg/mL] | MIC E. faecium L4001 (E. faecium L4001) [µg/mL] |
| --- | --- | --- | --- | --- |
| CC[C@H](C)[C@@H]1NC(=O)[C@@H](CCCNC(=N)N)NC(=O)[C@H](CC(C)C)NC(=O)[C@H]([C@H](O)C(C)C)NC(=O)[C@@H](NC(=O)[C@H](CC(C)C)NC(=O)C2(N)CCCCC2)[C@@H](c2ccccc2)OC(=O)[C@H](CO)NC(=O)[C@H]([C@H](O)C(N)=O)NC(=O)CNC(=O)[C@H]([C@H](C)O)NC1=O [Example 57, N-(1-Aminocyclohexyl)carbonyl-de(1-D-leucyl)lysobactin bistrifluoroacetate] (H-[Ac6c]L[Phe(3R-OH)][Leu(3R-OH)]L[dR]I[aThr]G[Asn(3S-OH)]S; ester 3-C) | 1 (≈ 0.776 µM) | 0.25 (≈ 0.194 µM) | 0.5 (≈ 0.388 µM) | 1 (≈ 0.776 µM) |
| CC[C@H](C)[C@@H]1NC(=O)[C@@H](CCCNC(=N)N)NC(=O)[C@H](CC(C)C)NC(=O)[C@H]([C@H](O)C(C)C)NC(=O)[C@@H](NC(=O)[C@H](CC(C)C)NC(=O)[C@H](N)C[Si](C)(C)C)[C@@H](c2ccccc2)OC(=O)[C@H](CO)NC(=O)[C@H]([C@H](O)C(N)=O)NC(=O)CNC(=O)[C@H]([C@H](C)O)NC1=O [Example 59, 3-(Trimethylsilyl-D-alanyl-de(1-D-leucyl)lysobactin bistrifluoroacetate] (H-[dAla(TMS)]L[Phe(3R-OH)][Leu(3R-OH)]L[dR]I[aThr]G[Asn(3S-OH)]S; ester 3-C) | 0.25 (≈ 0.191 µM) | <0.063 | 0.125 (≈ 0.0957 µM) | 0.25 (≈ 0.191 µM) |
| CC[C@H](C)[C@@H]1NC(=O)[C@@H](CCCNC(=N)N)NC(=O)[C@H](CC(C)C)NC(=O)[C@H]([C@H](O)C(C)C)NC(=O)[C@@H](NC(=O)[C@H](CC(C)C)NC(=O)[C@H](N)CCCNC(=O)OCc2ccccc2)[C@@H](c2ccccc2)OC(=O)[C@H](CO)NC(=O)[C@H]([C@H](O)C(N)=O)NC(=O)CNC(=O)[C@H]([C@H](C)O)NC1=O [Example 62, N^6-[(Benzyloxy)carbonyl]-D-ornithyl-de(1-D-leucyl)lysobactin bistrifluoroacetate] (H-[dOrn](Cbz)L[Phe(3R-OH)][Leu(3R-OH)]L[dR]I[aThr]G[Asn(3S-OH)]S; ester 3-C) | 1 (≈ 0.708 µM) | 0.5 (≈ 0.354 µM) | 0.25 (≈ 0.177 µM) | 0.5 (≈ 0.354 µM) |
| CC[C@H](C)[C@@H]1NC(=O)[C@@H](CCCNC(=N)N)NC(=O)[C@H](CC(C)C)NC(=O)[C@H]([C@H](O)C(C)C)NC(=O)[C@@H](NC(=O)[C@H](CC(C)(C)C)NC(=O)[C@H](N)CC(C)(C)C)[C@@H](c2ccccc2)OC(=O)[C@H](CO)NC(=O)[C@H]([C@H](O)C(N)=O)NC(=O)CNC(=O)[C@H]([C@H](C)O)NC1=O.O=C(O)C(F)(F)F.O=C(O)C(F)(F)F [Example 68] (H-[d(tBuAla)][tBuAla][Phe(3R-OH)][Leu(3R-OH)]L[dR]I[aThr]G[Asn(3S-OH)]S; ester 3-C) | 0.5 | 0.031 | 0.125 | 0.5 |
| CC[C@H](C)[C@@H]1NC(=O)[C@@H](CCCNC(=N)N)NC(=O)[C@H](CC(C)C)NC(=O)[C@H]([C@H](O)C(C)C)NC(=O)[C@@H](NC(=O)[C@H](Cc2cccnc2)NC(=O)[C@H](N)CC(C)(C)C)[C@@H](c2ccccc2)OC(=O)[C@H](CO)NC(=O)[C@H]([C@H](O)C(N)=O)NC(=O)CNC(=O)[C@H]([C@H](C)O)NC1=O [Example 69, 3-tert-Butyl-D-alanyl-3-(3-pyridyl)-L-alanyl-de(1-D-leucyl-2-L-leucyl)lysobactin tristrifluoroacetate] (H-[d(tBuAla)][3Pal][Phe(3R-OH)][Leu(3R-OH)]L[dR]I[aThr]G[Asn(3S-OH)]S; ester 3-C) | 1 (≈ 0.754 µM) | 0.5 (≈ 0.377 µM) | 0.5 (≈ 0.377 µM) | 1 (≈ 0.754 µM) |

Reference: patent US7368424B2, “Acylated nonadepsipeptides” (AiCuris GmbH & Co. KG, priority 2003, dated 2008)
